Measurements as given in patent US20130005747A1, “METHOD FOR SELECTING A CANCER THERAPY” (Cyclacel Limited, priority 2010, published 2013).

Legend:
WM-115 = assay: Fractional growth, 72 h seliciclib; format: cell-based, human; conditions: WM-115 (Skin), 15 μM seliciclib
Text: (§1) A total of 270 human cancer cell lines from diverse cancer histopathologic types were investigated.

NCI-H1581 = assay: Fractional growth, 72 h seliciclib; format: cell-based, human; conditions: NCI-H1581 (Lung: NSCLC), 15 μM seliciclib
Text: as §1

HARA = assay: Fractional growth, 72 h seliciclib; format: cell-based, human; conditions: HARA (Lung: NSCLC), 15 μM seliciclib
Text: as §1

SK-N-AS = assay: Fractional growth, 72 h seliciclib; format: cell-based, human; conditions: SK-N-AS (Brain), 15 μM seliciclib
Text: as §1

Saos-2 = assay: Fractional growth, 72 h seliciclib; format: cell-based, human; conditions: Saos-2 (Bone), 15 μM seliciclib
Text: as §1

BT-20 = assay: Fractional growth, 72 h seliciclib; format: cell-based, human; conditions: BT-20 (Breast), 15 μM seliciclib
Text: as §1

SNG-M = assay: Fractional growth, 72 h seliciclib; format: cell-based, human; conditions: SNG-M (Uterus), 15 μM seliciclib
Text: as §1

NH-6 = assay: Fractional growth, 72 h seliciclib; format: cell-based, human; conditions: NH-6 (Kidney), 15 μM seliciclib
Text: as §1

SW756 = assay: Fractional growth, 72 h seliciclib; format: cell-based, human; conditions: SW756 (Cervix), 15 μM seliciclib
Text: as §1

HPAC = assay: Fractional growth, 72 h seliciclib; format: cell-based, human; conditions: HPAC (Pancreas), 15 μM seliciclib
Text: as §1

MCF7 = assay: Fractional growth, 72 h seliciclib; format: cell-based, human; conditions: MCF7 (Breast), 15 μM seliciclib
Text: as §1

SiHa = assay: Fractional growth, 72 h seliciclib; format: cell-based, human; conditions: SiHa (Cervix), 15 μM seliciclib
Text: as §1

SW 13 = assay: Fractional growth, 72 h seliciclib; format: cell-based, human; conditions: SW 13 (Kidney), 15 μM seliciclib
Text: as §1

KYSE-410 = assay: Fractional growth, 72 h seliciclib; format: cell-based, human; conditions: KYSE-410 (Esophagus), 15 μM seliciclib
Text: as §1

SNU-449 = assay: Fractional growth, 72 h seliciclib; format: cell-based, human; conditions: SNU-449 (Liver), 15 μM seliciclib
Text: as §1

COLO-680N = assay: Fractional growth, 72 h seliciclib; format: cell-based, human; conditions: COLO-680N (Esophagus), 15 μM seliciclib
Text: as §1

A549 = assay: Fractional growth, 72 h seliciclib; format: cell-based, human; conditions: A549 (Lung: NSCLC), 15 μM seliciclib
Text: as §1

HSC-4 = assay: Fractional growth, 72 h seliciclib; format: cell-based, human; conditions: HSC-4 (Head & Neck), 15 μM seliciclib
Text: as §1

A-375 = assay: Fractional growth, 72 h seliciclib; format: cell-based, human; conditions: A-375 (Skin), 15 μM seliciclib
Text: as §1

Panc 04.03 = assay: Fractional growth, 72 h seliciclib; format: cell-based, human; conditions: Panc 04.03 (Pancreas), 15 μM seliciclib
Text: as §1

5637 = assay: Fractional growth, 72 h seliciclib; format: cell-based, human; conditions: 5637 (Bladder), 15 μM seliciclib
Text: as §1

PL4 = assay: Fractional growth, 72 h seliciclib; format: cell-based, human; conditions: PL4 (Pancreas), 15 μM seliciclib
Text: as §1

HCC1395 = assay: Fractional growth, 72 h seliciclib; format: cell-based, human; conditions: HCC1395 (Breast), 15 μM seliciclib
Text: as §1

HSC-2 = assay: Fractional growth, 72 h seliciclib; format: cell-based, human; conditions: HSC-2 (Head & Neck), 15 μM seliciclib
Text: as §1

HuH-7 = assay: Fractional growth, 72 h seliciclib; format: cell-based, human; conditions: HuH-7 (Liver), 15 μM seliciclib
Text: as §1

SNU-398 = assay: Fractional growth, 72 h seliciclib; format: cell-based, human; conditions: SNU-398 (Liver), 15 μM seliciclib
Text: as §1

JHU-028EP = assay: Fractional growth, 72 h seliciclib; format: cell-based, human; conditions: JHU-028EP (Head & Neck), 15 μM seliciclib
Text: as §1

PCI-30 = assay: Fractional growth, 72 h seliciclib; format: cell-based, human; conditions: PCI-30 (Head & Neck), 15 μM seliciclib
Text: as §1

NCI-H2347 = assay: Fractional growth, 72 h seliciclib; format: cell-based, human; conditions: NCI-H2347 (Lung: NSCLC), 15 μM seliciclib
Text: as §1

BT-549 = assay: Fractional growth, 72 h seliciclib; format: cell-based, human; conditions: BT-549 (Breast), 15 μM seliciclib
Text: as §1

MDA-MB-231 = assay: Fractional growth, 72 h seliciclib; format: cell-based, human; conditions: MDA-MB-231 (Breast), 15 μM seliciclib
Text: as §1

RCM-1 = assay: Fractional growth, 72 h seliciclib; format: cell-based, human; conditions: RCM-1 (Intestine), 15 μM seliciclib
Text: as §1

NCI-H2172 = assay: Fractional growth, 72 h seliciclib; format: cell-based, human; conditions: NCI-H2172 (Lung: NSCLC), 15 μM seliciclib
Text: as §1

HUP-T3 = assay: Fractional growth, 72 h seliciclib; format: cell-based, human; conditions: HUP-T3 (Pancreas), 15 μM seliciclib
Text: as §1

VM-CUB1 = assay: Fractional growth, 72 h seliciclib; format: cell-based, human; conditions: VM-CUB1 (Bladder), 15 μM seliciclib
Text: as §1

MGH-MC-1 = assay: Fractional growth, 72 h seliciclib; format: cell-based, human; conditions: MGH-MC-1 (Skin), 15 μM seliciclib
Text: as §1

[1] = system: nasopharyngeal cancer (NPC); conditions: Phase I, patients with nasopharyngeal cancer; cited from earlier work

## CC[C@H](CO)Nc1nc(NCc2ccccc2)c2ncn(C(C)C)c2n1 [seliciclib, roscovitine]
WM-115
  Fractional Growth: 0.5068
NCI-H1581
  Fractional Growth: 0.7659
HARA
  Fractional Growth: 0.6182
SK-N-AS
  Fractional Growth: 0.7261
Saos-2
  Fractional Growth: 0.5733
BT-20
  Fractional Growth: 0.7016
SNG-M
  Fractional Growth: 0.3393
NH-6
  Fractional Growth: 0.5218
SW756
  Fractional Growth: 0.6484
HPAC
  Fractional Growth: 0.7062
MCF7
  Fractional Growth: 0.4137
SiHa
  Fractional Growth: 0.4302
SW 13
  Fractional Growth: 0.5624
KYSE-410
  Fractional Growth: 0.4693
SNU-449
  Fractional Growth: 0.6309
COLO-680N
  Fractional Growth: 0.6838
A549
  Fractional Growth: 0.1925
HSC-4
  Fractional Growth: 0.3894
A-375
  Fractional Growth: 0.1771
Panc 04.03
  Fractional Growth: 0.4899
5637
  Fractional Growth: 0.6151
PL4
  Fractional Growth: 0.057
HCC1395
  Fractional Growth: 0.6999
HSC-2
  Fractional Growth: 0.5464
HuH-7
  Fractional Growth: 0.3911
SNU-398
  Fractional Growth: 0.0473
JHU-028EP
  Fractional Growth: 0.3716
PCI-30
  Fractional Growth: 0.5541
NCI-H2347
  Fractional Growth: 0.3299
BT-549
  Fractional Growth: 0.758
MDA-MB-231
  Fractional Growth: 0.4643
RCM-1
  Fractional Growth: 0.6689
NCI-H2172
  Fractional Growth: 0.6197
HUP-T3
  Fractional Growth: 0.4333
VM-CUB1
  Fractional Growth: 0.3307
MGH-MC-1
  Fractional Growth: 0.4543
[1]
  copy counts of the EBV virus: concomitant reduction in copy counts of the EBV virus
  tumor response: evidence of tumor shrinkage
